Assay in all cases: biochemical
The target in test [1] is T1, panel of 374 wild-type kinases (Homo sapiens, UniProt Q8N752).
T1 construct: purchased Reaction Biology Corporation
T1 sequence (Q8N752 1-337): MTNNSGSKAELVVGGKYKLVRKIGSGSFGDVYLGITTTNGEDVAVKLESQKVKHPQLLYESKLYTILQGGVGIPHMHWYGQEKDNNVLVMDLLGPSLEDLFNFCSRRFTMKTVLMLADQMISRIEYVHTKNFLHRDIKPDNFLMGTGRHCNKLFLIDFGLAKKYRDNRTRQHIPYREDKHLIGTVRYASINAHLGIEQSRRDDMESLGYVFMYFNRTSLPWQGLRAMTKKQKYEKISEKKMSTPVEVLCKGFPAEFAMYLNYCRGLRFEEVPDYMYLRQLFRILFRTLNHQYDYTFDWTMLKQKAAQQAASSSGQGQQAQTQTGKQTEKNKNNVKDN
To be noted: read-out: % Enzyme Activity (relative to DMSO controls), CK1a1L.

Test [2] addresses T2, panel of 374 wild-type kinases (Homo sapiens, UniProt Q96PF2).
T2 construct: purchased Reaction Biology Corporation
T2 sequence (Q96PF2 1-358): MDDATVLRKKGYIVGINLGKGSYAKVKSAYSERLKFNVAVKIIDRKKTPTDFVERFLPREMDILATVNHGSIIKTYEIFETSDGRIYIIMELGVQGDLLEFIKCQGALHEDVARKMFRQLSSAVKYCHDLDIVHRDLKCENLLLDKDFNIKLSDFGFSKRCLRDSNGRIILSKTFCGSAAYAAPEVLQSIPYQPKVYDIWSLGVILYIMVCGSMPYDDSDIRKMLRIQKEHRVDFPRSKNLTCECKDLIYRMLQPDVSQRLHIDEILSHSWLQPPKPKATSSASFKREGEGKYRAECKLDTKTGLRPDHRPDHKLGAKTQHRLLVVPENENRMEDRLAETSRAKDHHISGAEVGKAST
The note with it: read-out: % Enzyme Activity (relative to DMSO controls), kinase TSSK2.

Test [3] has as its target T3, panel of 374 wild-type kinases (Homo sapiens, UniProt P16591).
T3 construct: purchased Reaction Biology Corporation
To be noted: read-out: % Enzyme Activity (relative to DMSO controls), FER.

Test [4] deals with T4, panel of 374 wild-type kinases (Homo sapiens, UniProt P41743).
T4 construct: purchased Reaction Biology Corporation
T4 sequence (P41743 1-596): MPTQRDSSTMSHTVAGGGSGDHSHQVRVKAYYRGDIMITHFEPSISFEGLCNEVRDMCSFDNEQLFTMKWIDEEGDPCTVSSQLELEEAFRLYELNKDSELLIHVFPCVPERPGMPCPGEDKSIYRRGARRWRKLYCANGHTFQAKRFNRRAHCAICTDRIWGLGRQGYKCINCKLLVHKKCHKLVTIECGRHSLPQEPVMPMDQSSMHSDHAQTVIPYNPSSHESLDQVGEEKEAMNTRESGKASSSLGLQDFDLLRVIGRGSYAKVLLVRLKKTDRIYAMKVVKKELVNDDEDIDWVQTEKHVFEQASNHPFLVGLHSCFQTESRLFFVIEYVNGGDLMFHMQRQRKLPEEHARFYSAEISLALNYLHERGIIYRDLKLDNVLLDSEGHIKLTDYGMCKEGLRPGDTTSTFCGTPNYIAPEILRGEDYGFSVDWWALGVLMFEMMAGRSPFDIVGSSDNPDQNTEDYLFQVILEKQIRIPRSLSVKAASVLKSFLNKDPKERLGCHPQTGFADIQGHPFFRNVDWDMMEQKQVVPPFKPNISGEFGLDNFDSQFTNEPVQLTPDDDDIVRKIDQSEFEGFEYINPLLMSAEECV
The note with it: read-out: % Enzyme Activity (relative to DMSO controls), kinase PKCiota.

The target in test [5] is T5, panel of 374 wild-type kinases (Homo sapiens, UniProt Q99986).
T5 construct: purchased Reaction Biology Corporation
T5 sequence (Q99986 1-396): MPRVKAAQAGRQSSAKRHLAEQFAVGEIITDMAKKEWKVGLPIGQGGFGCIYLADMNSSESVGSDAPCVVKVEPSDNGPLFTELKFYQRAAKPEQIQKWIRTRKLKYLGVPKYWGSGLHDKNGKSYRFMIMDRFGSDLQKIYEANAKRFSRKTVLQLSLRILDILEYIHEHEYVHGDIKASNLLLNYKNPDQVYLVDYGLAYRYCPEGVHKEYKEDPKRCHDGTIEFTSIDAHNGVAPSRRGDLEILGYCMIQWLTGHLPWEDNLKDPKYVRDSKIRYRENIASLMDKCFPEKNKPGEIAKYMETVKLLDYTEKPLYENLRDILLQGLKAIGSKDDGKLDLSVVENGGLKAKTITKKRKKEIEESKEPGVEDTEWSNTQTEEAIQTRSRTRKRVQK
To be noted: read-out: % Enzyme Activity (relative to DMSO controls), kinase VRK1.

The target in test [6] is T6, panel of 374 wild-type kinases (Homo sapiens, UniProt Q6PHR2).
T6 construct: purchased Reaction Biology Corporation
T6 sequence (Q6PHR2 1-472): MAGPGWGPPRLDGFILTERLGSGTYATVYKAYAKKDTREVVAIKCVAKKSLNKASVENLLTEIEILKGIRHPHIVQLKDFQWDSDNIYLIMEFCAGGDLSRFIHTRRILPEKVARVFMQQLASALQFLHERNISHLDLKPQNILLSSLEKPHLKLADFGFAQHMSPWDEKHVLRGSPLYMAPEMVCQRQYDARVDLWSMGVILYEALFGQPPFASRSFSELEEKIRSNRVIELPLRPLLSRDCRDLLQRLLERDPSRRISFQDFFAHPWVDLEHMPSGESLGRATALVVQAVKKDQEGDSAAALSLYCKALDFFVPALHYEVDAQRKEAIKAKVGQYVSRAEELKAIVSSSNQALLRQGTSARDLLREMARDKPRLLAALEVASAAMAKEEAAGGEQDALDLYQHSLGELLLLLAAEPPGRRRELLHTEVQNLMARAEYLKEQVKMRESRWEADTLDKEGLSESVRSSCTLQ
The note with it: read-out: % Enzyme Activity (relative to DMSO controls), kinase ULK3.

T3 sequence (P16591 whole entry): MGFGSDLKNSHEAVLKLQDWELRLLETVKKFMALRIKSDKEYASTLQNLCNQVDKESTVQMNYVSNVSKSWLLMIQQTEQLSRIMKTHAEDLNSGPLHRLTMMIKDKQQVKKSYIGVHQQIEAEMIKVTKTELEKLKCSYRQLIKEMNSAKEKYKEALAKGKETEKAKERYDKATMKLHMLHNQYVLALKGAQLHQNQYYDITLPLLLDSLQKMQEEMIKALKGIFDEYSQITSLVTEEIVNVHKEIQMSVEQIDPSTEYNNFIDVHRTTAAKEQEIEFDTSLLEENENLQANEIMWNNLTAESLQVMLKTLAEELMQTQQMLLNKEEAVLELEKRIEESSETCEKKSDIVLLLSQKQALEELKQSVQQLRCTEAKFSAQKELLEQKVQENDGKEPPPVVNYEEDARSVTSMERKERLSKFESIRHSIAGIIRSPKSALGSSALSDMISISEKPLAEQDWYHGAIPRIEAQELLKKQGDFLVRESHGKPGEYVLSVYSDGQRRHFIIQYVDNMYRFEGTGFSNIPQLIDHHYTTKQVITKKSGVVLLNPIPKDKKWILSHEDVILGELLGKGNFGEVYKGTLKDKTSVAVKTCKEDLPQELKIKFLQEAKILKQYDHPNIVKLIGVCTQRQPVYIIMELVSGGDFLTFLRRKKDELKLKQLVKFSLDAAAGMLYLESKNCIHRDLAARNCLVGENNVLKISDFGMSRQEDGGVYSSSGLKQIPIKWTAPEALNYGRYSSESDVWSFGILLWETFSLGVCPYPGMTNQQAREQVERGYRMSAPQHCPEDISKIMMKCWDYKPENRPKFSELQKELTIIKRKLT

On to `O=C(Nc1cnn(-c2csc(C(=O)NC3COC3)c2)c1)Nc1ccccc1Cl` [Compound 17, 4-(4-(3-(2-chlorophenyl)ureido)-1H-pyrazol-1-yl)-N-(oxetan-3-yl)thiophene-2-carboxamide], for which the remaining activity at 5 µM was 109% in test [1]; 91.5% in test [2]; 101% in test [3]; 95.5% in test [4]; 109% in test [5]; 111% in test [6].

On to `O=C(Nc1cnn(-c2csc(C(=O)NC3COC3)c2)c1)Nc1c(F)cccc1Cl` [Compound 25, 4-(4-(3-(2-chloro-6-fluorophenyl)ureido)-1H-pyrazol-1-yl)-N-(oxetan-3-yl)thiophene-2-carboxamide], for which the remaining activity at 5 µM in test [1] was determined as 81.1%; in test [2] it was 95.1%; in test [3], 89.8%; in test [4], 87.4%; in test [5], 91.9%; in test [6], 76.6%.

As for `Cc1sc(C(=O)NC2COC2)cc1-n1cc(NC(=O)Nc2c(F)cccc2Cl)cn1` [Compound 27, 4-(4-(3-(2-chloro-6-fluorophenyl)ureido)-1H-pyrazol-1-yl)-5-methyl-N-(oxetan-3-yl)thiophene-2-carboxamide], the remaining activity at 10 µM came to 105% in test [1] (10 uM); 84.7% in test [2] (10 uM); 90% in test [3] (10 uM); 90.8% in test [4] (10 uM); 109% in test [5] (10 uM); 105% in test [6] (10 uM).

Source of the values: patent US20240246942A1, “KINASE INHIBITORS FOR THE TREATMENT OF NEURODEGENERATIVE DISEASES” (priority 2020, published 2024).
